Assay results: patent US20160324201A1, “SWEETENER COMPOSITION FOR ALLEVIATING DIABETES, CONTAINING SLOWLY DIGESTIBLE INGREDIENT” (CJ CHEILJEDANG CORPORATION, priority 2011, published 2016)

Columns and labels:
[1] = Changes in blood glucose after an identical meal and coffee containing the sweetener composition; format: in vivo, human; details: for Post-meal increase in blood glucose: result in words
Protocol: (1) Preparation of Test Specimen for Measuring Blood Glucose and Method of Intake
(§1) The sweetener composition intake was conducted by providing subjects with an identical meal and then allowing them to drink coffee containing the sweetener composition.
(2) Measurement of Changes in Blood Glucose Levels
(§2) In order to measure changes in blood glucose after the meal, blood glucose level before meal was checked, followed by providing the subjects with the meal and then coffee was given. Blood glucose was measured for 2 hours at intervals of 30 minutes.

[2] = Area under the curve of blood glucose (G-AUC) after meal and coffee containing the sweetener composition; format: in vivo, human
Protocol: as §1, §2

[3] = 0 min (before meal), normal subjects, five males and five females
[4] = 30 min after meal and coffee, * = p < 0.01 or less vs Comparative Example 1 (sugar)
[5] = 60 min after meal and coffee, * = p < 0.01 or less vs Comparative Example 1 (sugar)
[6] = 90 min after meal and coffee, * = p < 0.01 or less vs Comparative Example 1 (sugar)

| Structure (SMILES) | Blood glucose [1, 3] | Blood glucose [1, 4] | Blood glucose [1, 5] | Blood glucose [1, 6] | Blood glucose ([1]; 120 min after meal and coffee) | Post-meal increase in blood glucose [1] | G-AUC ([2]; to 30 min) | G-AUC ([2]; to 60 min) | G-AUC ([2]; to 90 min) | G-AUC ([2]; to 120 min) |
| --- | --- | --- | --- | --- | --- | --- | --- | --- | --- | --- |
| OC[C@H]1O[C@@](CO)(O[C@H]2O[C@H](CO)[C@@H](O)[C@H](O)[C@H]2O)[C@@H](O)[C@@H]1O [Comparative Example 1, Sugar] | 93.1 mg/dL | 139.1 mg/dL | 123.7 mg/dL | 98.5 mg/dL | 96.7 mg/dL | highest increase in blood glucose | 3483 mg·min/dL | 7425 mg·min/dL | 10758 mg·min/dL | 13686 mg·min/dL |
| OC[C@@H](O)[C@@H](O)CO [Comparative Example 2, Erythritol] | 92.8 mg/dL | 137.1 mg/dL | 121.6 mg/dL | 97.7 mg/dL | 97.2 mg/dL | increase in blood glucose due to the meal only | 3449 mg·min/dL | 7329 mg·min/dL | 10619 mg·min/dL | 13542 mg·min/dL |
| O=C(CO)[C@H](O)[C@H](O)[C@H](O)CO [Comparative Example 3, D-psicose] | 92.4 mg/dL | 123.3 mg/dL | 114.5 mg/dL | 93.1 mg/dL | 94.1 mg/dL | lowering increase in blood glucose after the meal | 3236 mg·min/dL | 6803 mg·min/dL | 9917 mg·min/dL | 12725 mg·min/dL |
